This note sets out measurements from patent US20230399342A1 (Incyte Corporation, priority 2022, published 2023).

One experiment has as its target DGKα (Homo sapiens (Human), UniProt P23743). Description: In vitro DGKα inhibition assay (ADP-Glo). Format: biochemical. Particulars: His-tagged human recombinant enzyme, 0.1 nM DGKα, 50 μM ATP, 20 μM DLG, 90 minute incubation. The method in brief:
(§1)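 His-tagged human DGKα (0.1 nM, 50 μM ATP) or DGKζ (0.4 nM, 30 μM ATP), each with 20 μM DLG, in Tris pH 7.5 buffer with CHAPS, Mg2+, Ca2+.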

A further experiment has as its target DGKζ (Homo sapiens (Human), UniProt Q13574). Description: In vitro DGKζ inhibition assay (ADP-Glo). Format: biochemical. Particulars: His-tagged human recombinant enzyme, 0.4 nM DGK, 30 μM ATP, 20 μM DLG, 90 minute incubation. The gist of the method:
as §1

Chain of DGKζ (Q13574 whole entry): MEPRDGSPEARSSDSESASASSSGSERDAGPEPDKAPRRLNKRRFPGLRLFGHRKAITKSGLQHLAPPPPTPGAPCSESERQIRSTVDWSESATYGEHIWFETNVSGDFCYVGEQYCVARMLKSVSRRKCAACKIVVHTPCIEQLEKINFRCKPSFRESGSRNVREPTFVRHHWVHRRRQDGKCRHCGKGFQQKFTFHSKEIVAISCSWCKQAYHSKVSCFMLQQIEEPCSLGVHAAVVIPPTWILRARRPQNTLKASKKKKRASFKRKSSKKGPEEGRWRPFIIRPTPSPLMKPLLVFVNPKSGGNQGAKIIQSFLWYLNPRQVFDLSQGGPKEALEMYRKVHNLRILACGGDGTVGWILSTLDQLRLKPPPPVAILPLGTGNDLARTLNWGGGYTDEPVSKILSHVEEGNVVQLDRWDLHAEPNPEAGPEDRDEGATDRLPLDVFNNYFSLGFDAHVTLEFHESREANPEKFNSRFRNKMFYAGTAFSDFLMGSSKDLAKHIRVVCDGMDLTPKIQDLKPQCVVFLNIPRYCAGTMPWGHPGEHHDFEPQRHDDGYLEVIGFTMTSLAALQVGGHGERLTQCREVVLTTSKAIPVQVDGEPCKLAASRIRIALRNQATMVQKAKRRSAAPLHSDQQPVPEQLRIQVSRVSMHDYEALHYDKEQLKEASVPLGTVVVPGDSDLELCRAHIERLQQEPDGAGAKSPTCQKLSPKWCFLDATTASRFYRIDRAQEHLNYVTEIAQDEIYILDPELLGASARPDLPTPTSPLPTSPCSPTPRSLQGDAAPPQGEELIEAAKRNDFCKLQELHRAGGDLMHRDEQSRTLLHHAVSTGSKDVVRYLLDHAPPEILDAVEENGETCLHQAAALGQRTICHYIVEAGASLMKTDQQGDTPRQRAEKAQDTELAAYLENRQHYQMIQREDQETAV
Chain of DGKα (P23743 whole entry): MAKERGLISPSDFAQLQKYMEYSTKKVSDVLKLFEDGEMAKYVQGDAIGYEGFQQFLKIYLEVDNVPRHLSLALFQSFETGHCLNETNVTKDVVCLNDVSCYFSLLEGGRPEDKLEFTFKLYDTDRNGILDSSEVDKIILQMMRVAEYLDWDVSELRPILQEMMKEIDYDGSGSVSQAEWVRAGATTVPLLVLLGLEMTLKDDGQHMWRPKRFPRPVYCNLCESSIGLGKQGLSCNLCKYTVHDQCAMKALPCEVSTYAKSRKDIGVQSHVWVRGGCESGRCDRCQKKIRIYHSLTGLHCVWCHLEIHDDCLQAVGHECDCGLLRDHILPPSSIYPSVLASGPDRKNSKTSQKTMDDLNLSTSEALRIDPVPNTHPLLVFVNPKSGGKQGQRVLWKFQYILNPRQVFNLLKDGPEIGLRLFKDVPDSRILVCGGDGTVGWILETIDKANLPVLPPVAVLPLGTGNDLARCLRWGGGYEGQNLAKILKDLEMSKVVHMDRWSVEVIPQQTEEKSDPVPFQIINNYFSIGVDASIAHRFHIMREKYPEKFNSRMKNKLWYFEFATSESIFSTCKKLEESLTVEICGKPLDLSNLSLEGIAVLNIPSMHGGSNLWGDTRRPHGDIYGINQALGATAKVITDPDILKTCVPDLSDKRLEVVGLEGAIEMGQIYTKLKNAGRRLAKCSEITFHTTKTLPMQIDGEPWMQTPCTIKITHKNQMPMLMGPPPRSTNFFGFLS

Take `CC[C@@H]1CN(c2nc3nncn3c3c2nc(C)n3C[C@@H]2CCCO2)[C@@H](C)CN1[C@@H](c1ccc(C(F)(F)F)cc1)C(C)C` [Example 129, 4-((2S,5R)-5-Ethyl-2-methyl-4-((R)-2-methyl-1-(4-(trifluoromethyl)phenyl)propyl)piperazin-1-yl)-2-methyl-1-(((S)-tetrahydrofuran-2-yl)methyl)-1H-[1,2,4]triazolo[3,4-b]purine]: the IC50 at DGKα and on DGKζ was at most 20 nM throughout.

As for `Cc1nc2c(N3C[C@@H](C)N(C(c4ccc(Cl)c(F)c4)C4CC(F)(F)C4)C[C@@H]3C)nc3nncn3c2n1C[C@@H]1CCCO1` (single isomer, unassigned) [Example 50], the IC50 on DGKα and at DGKζ was at most 20 nM throughout.

As to `COc1cccc([C@@H](C(C)C)N2C[C@H](C)N(c3nc4nncn4c4c3nc(C)n4C[C@@H]3CCCO3)C[C@H]2C)c1` [Example 99, 4-((2S,5R)-4-((R)-1-(3-methoxyphenyl)-2-methylpropyl)-2,5-dimethylpiperazin-1-yl)-2-methyl-1-(((S)-tetrahydrofuran-2-yl)methyl)-1H-[1,2,4]triazolo[3,4-b]purine], the IC50 on DGKα and on DGKζ was at most 20 nM in each case.

For the compound `CC(C)[C@H](c1ccc(F)cc1)N1C[C@H](C)N(c2nc3nncn3c3c2ncn3CC2CC2)C[C@H]1C` [Example 23, 1-(cyclopropylmethyl)-4-((2S,5R)-4-((R)-1-(4-fluorophenyl)-2-methylpropyl)-2,5-dimethylpiperazin-1-yl)-1H-[1,2,4]triazolo[3,4-b]purine], the IC50 on DGKα and on DGKζ was at most 20 nM throughout.

As for `C[C@@H]1CN(c2nc3nncn3c3c2ncn3CC2CC2)[C@@H](C)CN1[C@H](c1ccc(F)cc1)c1ccc(OC(F)(F)F)cn1` [Example 25, 1-(cyclopropylmethyl)-4-((2S,5R)-4-((R)-(4-fluorophenyl)(5-(trifluoromethoxy)pyridin-2-yl)methyl)-2,5-dimethylpiperazin-1-yl)-1H-[1,2,4]triazolo[3,4-b]purine], the IC50 was at most 20 nM on DGKα and 20 to 200 nM at DGKζ.

In the case of `COc1ccc([C@@H](C(C)C)N2C[C@H](C)N(c3nc4nncn4c4c3nc(C)n4C[C@@H]3CCCO3)C[C@H]2C)cc1` [Example 78, 4-((2S,5R)-4-((R)-1-(4-methoxyphenyl)-2-methylpropyl)-2,5-dimethylpiperazin-1-yl)-2-methyl-1-(((S)-tetrahydrofuran-2-yl)methyl)-1H-[1,2,4]triazolo[3,4-b]purine], the IC50 at DGKα and at DGKζ was at most 20 nM throughout.

For the compound `Cc1nc2c(N3C[C@@H](C)N([C@H](c4ccc(OC(F)(F)F)cc4)C(C)C)C[C@@H]3C)nc3nncn3c2n1C[C@@H]1CCCO1` [Example 118, 4-((2S,5R)-2,5-Dimethyl-4-((S)-2-methyl-1-(4-(trifluoromethoxy)phenyl)propyl)piperazin-1-yl)-2-methyl-1-(((S)-tetrahydrofuran-2-yl)methyl)-1H-[1,2,4]triazolo[3,4-b]purine], the IC50 at DGKα and at DGKζ was at most 20 nM each time.

As for `Cc1nc2c(N3C[C@@H](C)N(C(c4ccc(C(F)F)c(F)c4)C(C)C)C[C@@H]3C)nc3nncn3c2n1C[C@@H]1CCCO1` (single isomer, unassigned) [Example 81], the IC50 at DGKα and on DGKζ was at most 20 nM each time.

With `CC[C@@H]1CN(c2nc3nncn3c3c2nnn3C[C@H]2CCCO2)[C@@H](C)CN1C(c1ccc(F)cc1)c1ccc(F)cc1` [Example 32, 4-((2S,5R)-4-(Bis(4-fluorophenyl)methyl)-5-ethyl-2-methylpiperazin-1-yl)-1-(((R)-tetrahydrofuran-2-yl)methyl)-1H-[1,2,3]triazolo[4,5-e][1,2,4]triazolo[4,3-a]pyrimidine], the half-maximal inhibitory concentration (IC50) at DGKα and at DGKζ was at most 20 nM throughout.

On to `C[C@@H]1CN(c2nc3nncn3c3c2ncn3CCN(C)C)[C@@H](C)CN1C(c1ccc(C(F)(F)F)cc1)[C@H]1C[C@H](C(F)(F)F)C1` (stereo partly drawn) [Example 116, 2-(4-((2S,5R)-2,5-Dimethyl-4-(((trans)-3-(trifluoromethyl)cyclobutyl)(4-(trifluoromethyl)phenyl)methyl)piperazin-1-yl)-1H-[1,2,4]triazolo[3,4-b]purin-1-yl)-N,N-dimethylethan-1-amine], for which the IC50 at DGKα and on DGKζ was at most 20 nM each time.

Take `Cc1nc2c(N3C[C@@H](C)N([C@@H](c4ccc(OC(F)F)cc4)C(C)C)C[C@@H]3C)nc3nncn3c2n1C[C@@H]1CCCO1` [Example 80, 4-((2S,5R)-4-((R)-1-(4-(difluoromethoxy)phenyl)-2-methylpropyl)-2,5-dimethylpiperazin-1-yl)-2-methyl-1-(((S)-tetrahydrofuran-2-yl)methyl)-1H-[1,2,4]triazolo[3,4-b]purine]: the values for the IC50 at DGKα and at DGKζ were at most 20 nM and 20 to 200 nM, respectively.

Regarding `Cc1cc(C(C2CC(F)(F)C2)N2C[C@H](C)N(c3nc4nncn4c4c3nc(C)n4C[C@@H]3CCCO3)C[C@H]2C)ccc1C(F)(F)F` (stereo partly drawn) [Example 55, 4-((2S,5R)-4-((3,3-Difluorocyclobutyl)(3-methyl-4-(trifluoromethyl)phenyl)methyl)-2,5-dimethylpiperazin-1-yl)-2-methyl-1-(((S)-tetrahydrofuran-2-yl)methyl)-1H-[1,2,4]triazolo[3,4-b]purine], the IC50 on DGKα and at DGKζ was at most 20 nM in each case.

Turning to `Cc1nc2c(N3C[C@@H](C)N(C(c4ccc(Cl)cc4)C4CC(F)(F)C4)C[C@@H]3C)nc3nncn3c2n1C[C@@H]1CCCO1` (stereo partly drawn) [Example 60, 4-((2S,5R)-4-((4-Chlorophenyl)(3,3-difluorocyclobutyl)methyl)-2,5-dimethylpiperazin-1-yl)-2-methyl-1-(((S)-tetrahydrofuran-2-yl)methyl)-1H-[1,2,4]triazolo[3,4-b]purine], the IC50 on DGKα and at DGKζ was at most 20 nM each time.

Regarding `Cc1nc2c(N3C[C@@H](C)N([C@H](c4cccc(Cl)c4)C(C)C)C[C@@H]3C)nc3nncn3c2n1C[C@@H]1CCCO1` [Example 96, 4-((2S,5R)-4-((S)-1-(3-Chlorophenyl)-2-methylpropyl)-2,5-dimethylpiperazin-1-yl)-2-methyl-1-(((S)-tetrahydrofuran-2-yl)methyl)-1H-[1,2,4]triazolo[3,4-b]purine], the IC50 at DGKα and on DGKζ was at most 20 nM throughout.

`Cc1nc2c(N3C[C@@H](C)N([C@H](c4ccc(F)c(F)c4)C4CC(F)(F)C4)C[C@@H]3C)nc3nncn3c2n1C[C@@H]1CCCO1` [Example 46, 4-((2S,5R)-4-((S)-(3,3-Difluorocyclobutyl)(3,4-difluorophenyl)methyl)-2,5-dimethylpiperazin-1-yl)-2-methyl-1-(((S)-tetrahydrofuran-2-yl)methyl)-1H-[1,2,4]triazolo[3,4-b]purine]: the IC50 at DGKα and on DGKζ was at most 20 nM throughout.

As to `CCn1ccc2c1c(N1C[C@@H](C)N(C(c3ccc(F)cc3)c3ccc(F)cc3)C[C@@H]1C)nc1nncn12` [Example 10, 5-((2S,5R)-4-(Bis(4-fluorophenyl)methyl)-2,5-dimethylpiperazin-1-yl)-6-ethyl-6H-pyrrolo[2,3-e][1,2,4]triazolo[4,3-a]pyrimidine], the IC50 at DGKα is at most 20 nM; on DGKζ it was above 2000 nM.
